Test results taken from patent US20240376094A2, “SELECTIVE BCL-XL PROTAC COMPOUNDS AND METHODS OF USE” (Les Laboratoires Servier, priority 2021, published 2024).
pIC50: −log10 of the molar value.

Key:
Assay type in all cases: cell-based
MOLT-4 cells = assay: MOLT-4 cell viability, MTT assay; details: Homo sapiens, MOLT-4, 48 h
Excerpt: The MTT colorimetric assay is based on the mitochondrial reduction of tetrazolium salt by living cells. The viable cell number is proportional to the production of formazan salts, which can be read spectrophotometrically at 540 nm. The CTG luminescent assay (CellTiter GLO, Promega) is based on a reagent which lyses cells and measures total adenosine triphosphate (ATP) content. The viable cell number is proportional to the production of ATP.
MOLT-4 cells were purchased from ATCC and cultivated in RPMI 1640 supplemented with 10% heat inactivated fetal bovine serum, penicillin (100 IU/mi), streptomycin (100 μg/ml) and L-glutamine (2 mM). Cells were cultured at 37° C. in a humidified atmosphere containing 5% […].
For MTT assay, cells were seeded in 96 microwell plates (150 μL per well) and exposed to the compounds for 48 h (3.16 fold serially diluted; 9 concentrations each, triplicates). At the end of incubation time, 15 μL of MTT solution (5 mg/ml) were added per well and the cells were incubated for another 4 h. Then, 100 μL of 10% Sodium Dodecyl Sulfate (SDS)/HCl 10 mM were added per well and the plate was incubated overnight, before measurement of optical density at 540 nm.
IC50, were calculated using standard four-parametric curve fitting. IC50 is defined as the compound concentration at which the MTT or CTG signal is reduced to 50% of that measured for the control. Results shown in Table 14 represent the mean of at least 2 independent experiments.

Bcl-xL = target: T1, Bcl-xL (Homo sapiens, UniProt Q07817); assay: HCT116 Bcl-xL degradation, capillary-based immunoassay (WES); details: for remaining activity at 0.01 µM / remaining activity at 0.1 µM: HCT-116, 24 h, % of untreated cells; for remaining activity at 0.01 µM: HCT116, 10 nM; for remaining activity at 0.1 µM: HCT116, 100 nM; for DC50: HCT116, 24 h, 9-point serial dilution
T1 construct: Measured levels of Bcl-xL protein of HCT116 cells treated with the tested compounds; host or cells: HCT116
Outline: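 HCT116 cells treated 24 h with compound at 10/100 nM and/or 9-point dilution (quadruplicates), then lysed. Bcl-xL measured by capillary WES immunoassay, normalized to cofilin and expressed as % of untreated cells. DC50 from four-parameter curve fit.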

COR-L105 = assay: CellTiter-Glo proliferation assay, COR-L105; details: Homo sapiens, COR-L105, 120 h, COR-L105, 5 days
Experimental: (§1) The BCL-xL degrader compounds were tested against two endogenous cancer cell lines: • COR-L105: ECACC No. 92031918 cultured in RPMI-1640+10% FBS • NCI-H1650: (ATCC No. CRL-5883 cultured in RPMI-1640+10% FBS
(§2) The ability of the BCL-xL degrader low molecular weight compounds to inhibit cell proliferation and survival was assessed using the Promega CellTiter-Glo® proliferation assay.
(§3) Cell lines were cultured in media that is optimal for their growth at 5% CO2, 37° C. in a tissue culture incubator. Prior to seeding for the proliferation assay, the cells were split at least 2 days before the assay to ensure optimal growth density. On the day of seeding, adherent cells were lifted off tissue culture flasks using 0.25% trypsin. Cell viability and cell density were determined using a cell counter (Vi-Cell XR Cell Viability Analyzer, Beckman Coulter). Cells with higher than 85% viability were seeded for the assay.
(§4) The COR-105 cell line was seeded in white, clear bottom 384-well TC treated plates (Corning cat. #3765). Cells were seeded at a density of 1,000 cells per well in 45 μL of standard growth media. Plates were incubated at 5% CO2, 37° C. overnight in a tissue culture incubator. The NCI-H1650 cell line was seeded in black, clear round bottom 384-well ultra-low attachment spheroid microplates (Corning cat. #3830). Cells were seeded at a density of 3,000 cells per well in 45 uL of standard growth media. Plates were spun in a centrifuge for 5 minutes and 1,000 RPM. Plates were incubated at 5% CO2, 37° C. for 72 hours in a tissue culture incubator.
(§5) On the day of dosing, BCL-xL degrader low molecular weight compounds were prepared at 1 OX in standard growth media. The prepared drug treatments were then added to the cells resulting in final concentrations of 0.508 nM-10 μM and a final volume of 50 μL per well. Each drug concentration was tested in quadruplets. Plates were incubated at 5% CO2, 37° C. for 5 days in a tissue culture incubator.
(§6) For COR-L105 plates, cell viability was assessed through the addition of 25 μL of CellTiter Glo® (Promega, cat #G7573), a reagent which lyses cells and measures total adenosine triphosphate (ATP) content. Plates were incubated at room temperature for 10 minutes to stabilize luminescent signals prior to reading with a luminescence reader (EnVision Multilabel Plate Reader, PerkinElmer). For NCI-H1650 plates, cell viability was assessed through the addition of 40 μL of CellTiter Glo® 3D Cell Viability Assay substrate (Promega, cat #G9681), a reagent which lyses cells and measures total adenosine triphosphate (ATP) content. Wells were mixed thoroughly and plates were incubated at room temperature for 30 minutes to stabilize luminescent signals prior to reading using a luminescence reader (EnVision Multilabel Plate Reader, PerkinElmer).
(§7) To evaluate the effect of the drug treatments, luminescent counts from wells containing untreated cells (100% viability) were used to normalize treated samples. A variable slope model was applied to fit a nonlinear regression curve to the data in GraphPad PRISM version 7.02 software. IC50 and Amax values were extrapolated from the resultant curves. The concentrations of treatment required to inhibit 50% of cell growth or survival (IC50) were calculated with representative IC50 values of the cell lines tested summarized in Table 11.

NCI-H1650 = assay: CellTiter-Glo 3D proliferation assay, NCI-H1650 spheroids; details: Homo sapiens, NCI-H1650, 120 h, 5 days
Experimental: as §1, §2, §3, §4, §5, §6, §7

[1] = tested on: EBC-1 lung cancer cell line; assay: EBC-1 cell proliferation, CellTiter-Glo assay; details: Homo sapiens, 120 h; Ebc-1 cell viability, CTG assay, 5 days of treatment; read-out: CTG 5 day Ebc1 GI50
Outline: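 EBC-1 cells seeded at 1000 per well overnight, then exposed to 10-point dilutions (0.508 nM–10 μM final) for 5 days at 37 °C, in triplicate. ATP luminescence by CellTiter-Glo, normalised to untreated wells; GI50 from four-parameter logistic fit, runs valid only with at least one doubling.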

HiBiT-tagged BCL-xL = target: T2, HiBiT-tagged BCL-xL (Homo sapiens, UniProt Q07817); assay: NCI-H1650 BCL-xL protein levels, Nano-Glo HiBiT Lytic Detection; details: NCI-H1650 expressing HiBiT-tagged BCL-xL, overnight incubation, read-out: Bcl-xl HIBIT NCIH1650 DC50
T2 construct: expressed in transfected cells; host or cells: NCI-H1650 (ATCC No. CRL-5883), engineered HiBiT cell line
Outline: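 NCI-H1650 cells expressing HiBiT-tagged BCL-xL (5000/well) were treated overnight at 37° C with 10 concentrations, final 0.508 nM-10 μM, in triplicate. Remaining BCL-xL measured by Nano-Glo HiBiT lytic luminescence, normalized to untreated cells; 50% values by four-parameter logistic fit.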

T1 sequence (Q07817 whole entry): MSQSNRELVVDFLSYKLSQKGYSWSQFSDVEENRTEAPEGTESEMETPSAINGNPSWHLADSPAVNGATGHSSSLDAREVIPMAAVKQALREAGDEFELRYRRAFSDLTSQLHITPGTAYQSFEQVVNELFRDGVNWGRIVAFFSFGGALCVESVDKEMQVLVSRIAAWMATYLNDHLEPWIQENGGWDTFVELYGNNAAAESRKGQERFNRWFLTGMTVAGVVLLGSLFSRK
T2 sequence (Q07817 whole entry): as above

Structure (SMILES) | pIC50 (MOLT-4 cells) | remaining activity at 0.01 µM (Bcl-xL) [%] | remaining activity at 0.1 µM (Bcl-xL) [%] | DC50 (Bcl-xL) [nM] | further results
Cc1ncsc1-c1ccc(CNC(=O)[C@@H]2C[C@@H](O)CN2C(=O)[C@@H](NC(=O)CCCCCCC(=O)N2CCN(CC#Cc3ccc(OCCCc4sc(N5CCCc6c5nnc(Nc5nc7ccccc7s5)c6C)nc4C(=O)O)c(F)c3)CC2)C(C)(C)C)cc1 [Example 20, 2-[3-(1,3-benzothiazol-2-ylamino)-4-methyl-6,7-dihydro-5H-pyrido[2,3-c]pyridazin-8-yl]-5-[3-[2-fluoro-4-[3-[4-[8-[[(1S)-1-[(2S,4R)-4-hydroxy-2-[[4-(4-methylthiazol-5-yl)phenyl]methylcarbamoyl]pyrrolidine-1-carbonyl]-2,2-dimethyl-propyl]amino]-8-oxo-octanoyl]piperazin-1-yl]prop-1-ynyl]phenoxy]propyl]thiazole-4-carboxylic acid] | 8.35 | 51 | 31 | – | –
Cc1cc(N(CCCCNC(=O)CCOCCOCCOCCOCCNc2cccc3c2C(=O)N(C2CCC(=O)NC2=O)C3=O)c2nc(C(=O)O)c(CCCOc3ccc(C#CCN(C)C)cc3F)s2)nnc1Nc1nc2ccccc2s1 (centres unmarked) [Example 149, 2-[[6-(1,3-benzothiazol-2-ylamino)-5-methyl-pyridazin-3-yl]-[4-[3-[2-[2-[2-[2-[[2-(2,6-dioxo-3-piperidyl)-1,3-dioxo-isoindolin-4-yl]amino]ethoxy]ethoxy]ethoxy]ethoxy]propanoylamino]butyl]amino]-5-[3-[4-[3-(dimethylamino)prop-1-ynyl]-2-fluoro-phenoxy]propyl]thiazole-4-carboxylic acid] | 6.45 | – | – | – | –
Cc1cc(N(CCCCCn2cc(CCCCCCCNc3cccc4c3C(=O)N(C3CCC(=O)NC3=O)C4=O)nn2)c2ccc(-c3cnn(CC45CC6(C)CC(C)(C4)CC(OCCN(C)C)(C6)C5)c3C)c(C(=O)O)n2)nnc1Nc1nc2ccccc2s1 (centres unmarked) [Example 150, 6-[[6-(1,3-benzothiazol-2-ylamino)-5-methyl-pyridazin-3-yl]-[5-[4-[7-[[2-(2,6-dioxo-3-piperidyl)-1,3-dioxo-isoindolin-4-yl]amino]heptyl]triazol-1-yl]pentyl]amino]-3-[1-[[3-[2-(dimethylamino)ethoxy]-5,7-dimethyl-1-adamantyl]methyl]-5-methyl-pyrazol-4-yl]pyridine-2-carboxylic acid] | 7.71 | – | – | 14.5 | –
Cc1c(Nc2nc3ccccc3s2)nnc2c1CCCN2c1ccc(-c2cnn(CC34CC5(C)CC(C)(C3)CC(OCCN(C)CCCCCCCCOc3ccc6c(c3)C(=O)N(C3CCC(=O)NC3=O)C6=O)(C5)C4)c2C)c(C(=O)O)n1 (centres unmarked) [Example 10, 6-[3-(1,3-benzothiazol-2-ylamino)-4-methyl-6,7-dihydro-5H-pyrido[2,3-c]pyridazin-8-yl]-3-[1-[[3-[2-[8-[2-(2,6-dioxo-3-piperidyl)-1,3-dioxo-isoindolin-5-yl]oxyoctyl-methyl-amino]ethoxy]-5,7-dimethyl-1-adamantyl]methyl]-5-methyl-pyrazol-4-yl]pyridine-2-carboxylic acid] | 9.40 | 48 | 43 | > 316 | –
Cc1cc(N(CCCCCn2cc(COCCOCCNc3cccc4c3C(=O)N(C3CCC(=O)NC3=O)C4=O)nn2)c2ccc(-c3cnn(CC45CC6(C)CC(C)(C4)CC(OCCN(C)C)(C6)C5)c3C)c(C(=O)O)n2)nnc1Nc1nc2ccccc2s1 (centres unmarked) [Example 61, 6-[[6-(1,3-benzothiazol-2-ylamino)-5-methyl-pyridazin-3-yl]-[5-[4-[2-[2-[[2-(2,6-dioxo-3-piperidyl)-1,3-dioxo-isoindolin-4-yl]amino]ethoxy]ethoxymethyl]triazol-1-yl]pentyl]amino]-3-[1-[[3-[2-(dimethylamino)ethoxy]-5,7-dimethyl-1-adamantyl]methyl]-5-methyl-pyrazol-4-yl]pyridine-2-carboxylic acid] | 7.79 | 46 | 16 | 7.49 | –
Cc1ncsc1-c1ccc(CNC(=O)[C@@H]2C[C@@H](O)CN2C(=O)[C@@H](NC(=O)C2(F)CC2)C(C)(C)C)c(OCCCCCCCCCN2CCN(CC#Cc3ccc(OCCCc4sc(N5CCCc6c5nnc(Nc5nc7ccccc7s5)c6C)nc4C(=O)O)c(F)c3)CC2)c1 [Example 57, 2-(3-(benzo[d]thiazol-2-ylamino)-4-methyl-6,7-dihydropyrido [2,3-c]pyridazin-8(5H)-yl)-5-(3-(2-fluoro-4-(3-(4-(9-(2-(((2S,4R)-1-((S)-2-(1-fluorocyclopropane-1-carboxamido)-3,3-dimethylbutanoyl)-4-hydroxypyrrolidine-2-carboxamido)methyl)-5-(4-methylthiazol-5-yl)phenoxy)nonyl)piperazin-1-yl)prop-1-yn-1-yl)phenoxy)propyl)thiazole-4-carboxylic acid] | – | – | – | – | pIC50 (COR-L105): 5.44; Emax (COR-L105; read-out: COR-L105 Span (max)): 72.5%; pIC50 (NCI-H1650): 6.59; Emax (NCI-H1650; read-out: NCI-H1650 Span (Amax)): 126%; GI50 [1]: 5 nM; DC50 (HiBiT-tagged BCL-xL): 18 nM
